Data from the supplement of paper PMC11451515.

System: SEM cells
Experiment: cell viability relative to DMSO control; higher = less cytotoxic
Conditions: 48 h
Outline: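 Viability, reported as a per-plate percentage of DMSO wells with cell-free wells as background, came from CellTiter-Glo One luminescence. Reading took place after 48 h at 37°C. Before that, NOMO1 or SEM (500 cells/well) or P12-Ichikawa (1000 cells/well) leukemia cells, adapted for at least four passages in each medium, were seeded in 1536-well plates (5 μl) and pin-dosed with library compounds in DMSO, 47 μM to 0.79 nM over 11 threefold points.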

[1] = HPLM + 10% dialyzed FBS, 0.000781 µM
[2] = HPLM + 10% dialyzed FBS, 0.00234 µM
[3] = HPLM + 10% dialyzed FBS, 0.00702 µM
[4] = HPLM + 10% dialyzed FBS, 0.0211 µM
[5] = HPLM + 10% dialyzed FBS, 0.0632 µM
[6] = HPLM + 10% dialyzed FBS, 0.19 µM
[7] = HPLM + 10% dialyzed FBS, 0.569 µM
[8] = HPLM + 10% dialyzed FBS, 1.71 µM
[9] = HPLM + 10% dialyzed FBS, 5.12 µM
[10] = HPLM + 10% dialyzed FBS, 15.4 µM
[11] = HPLM + 10% dialyzed FBS, 46.1 µM
[12] = RPMI 5 mM glucose + 10% FBS, 0.000781 µM
[13] = RPMI 5 mM glucose + 10% FBS, 0.00234 µM
[14] = RPMI 5 mM glucose + 10% FBS, 0.00702 µM
[15] = RPMI 5 mM glucose + 10% FBS, 0.0211 µM
[16] = RPMI 5 mM glucose + 10% FBS, 0.0632 µM
[17] = RPMI 5 mM glucose + 10% FBS, 0.19 µM
[18] = RPMI 5 mM glucose + 10% FBS, 0.569 µM
[19] = RPMI 5 mM glucose + 10% FBS, 1.71 µM
[20] = RPMI 5 mM glucose + 10% FBS, 5.12 µM
[21] = RPMI 5 mM glucose + 10% FBS, 15.4 µM
[22] = RPMI 5 mM glucose + 10% FBS, 46.1 µM
[23] = RPMI 5 mM glucose + 10% dialyzed FBS, 0.000781 µM
[24] = RPMI 5 mM glucose + 10% dialyzed FBS, 0.00234 µM
[25] = RPMI 5 mM glucose + 10% dialyzed FBS, 0.00702 µM
[26] = RPMI 5 mM glucose + 10% dialyzed FBS, 0.0211 µM
[27] = RPMI 5 mM glucose + 10% dialyzed FBS, 0.0632 µM
[28] = RPMI 5 mM glucose + 10% dialyzed FBS, 0.19 µM
[29] = RPMI 5 mM glucose + 10% dialyzed FBS, 0.569 µM
[30] = RPMI 5 mM glucose + 10% dialyzed FBS, 1.71 µM
[31] = RPMI 5 mM glucose + 10% dialyzed FBS, 5.12 µM
[32] = RPMI 5 mM glucose + 10% dialyzed FBS, 15.4 µM
[33] = RPMI 5 mM glucose + 10% dialyzed FBS, 46.1 µM

Row | Compound | cell viability [1] | cell viability [2] | cell viability [3] | cell viability [4] | cell viability [5] | cell viability [6] | cell viability [7] | cell viability [8] | cell viability [9] | cell viability [10] | cell viability [11] | cell viability [12] | cell viability [13] | cell viability [14] | cell viability [15] | cell viability [16] | cell viability [17] | cell viability [18] | cell viability [19] | cell viability [20] | cell viability [21] | cell viability [22] | cell viability [23] | cell viability [24] | cell viability [25] | cell viability [26] | cell viability [27] | cell viability [28] | cell viability [29] | cell viability [30] | cell viability [31] | cell viability [32] | cell viability [33]
1 | C[N]1C=C(C2=CC=CC=C12)\C3=C(\C(=O)NC3=O)C4=C[N](C5CCN(CC5)CC6=NC=CC=C6)C7=C4C=CC=C7 | 98.6% | 113% | 102% | 119% | 114% | 116% | 125% | 118% | 112% | 71.6% | 109% | 95.2% | 108% | 114% | 119% | 112% | 104% | 111% | 93.3% | 102% | 66.4% | 87.5% | 98.6% | 124% | 109% | 118% | 118% | 127% | 119% | 111% | 101% | 69.2% | 117%
2 | CC[S+](=O)([O-])Nc1ccc2c(c1)/C(=C(/Nc1ccc(CN3CCCCC3)cc1)c1ccccc1)C(=O)N2 | 117% | 112% | 108% | 95.5% | 71.3% | 27.8% | 23.9% | 19.4% | 18.5% | 5.02% | 3.36% | 110% | 108% | 111% | 108% | 89.1% | 17.9% | 18.1% | 13.8% | 10% | 3.47% | 2.27% | 118% | 110% | 126% | 103% | 89.7% | 18.5% | 16.3% | 13.6% | 11.5% | 6.15% | 2.34%
3 | C[C@H](CCC(=O)O)[C@H]1CCC2C3C[C@H](O)[C@@H]4C[C@H](O)CC[C@]4(C)C3CC[C@@]21C (some centres not stated) |  |  |  |  |  |  |  |  |  |  |  | 109% | 122% | 129% | 131% | 135% | 102% | 103% | 117% | 123% | 107% | 108% |  |  |  |  |  |  |  |  |  |  | 
4 | c1ccc2c(Cc3c[nH]c4ccccc34)c[nH]c2c1 | 93.8% | 95.3% | 97.5% | 89.4% | 88.7% | 82.2% | 73.8% | 80.3% | 78.9% | 62.1% | 18.6% | 106% | 92.9% | 96% | 104% | 90.3% | 81.1% | 73.8% | 78.6% | 76.4% | 71.5% | 14.6% | 103% | 99% | 109% | 101% | 73.2% | 82.7% | 72.3% | 74.7% | 68.3% | 56.1% | 15.8%
5 | N#C/C(=C\c1ccc(O)c(O)c1)C(=O)NCc1ccccc1 | 103% | 103% | 109% | 113% | 113% | 102% | 93.2% | 104% | 105% | 72.8% | 37.2% | 103% | 100% | 101% | 105% | 114% | 111% | 107% | 112% | 96.4% | 80.2% | 9.69% | 111% | 107% | 96.4% | 106% | 114% | 102% | 104% | 101% | 101% | 69% | 26.4%
6 | COc1cc(Nc2c(C#N)cnc3cc(OCCCN4CCN(C)CC4)c(OC)cc23)c(Cl)cc1Cl | 87.1% | 96.8% | 114% | 113% | 111% | 95% | 109% | 54.6% | 13% | 5.77% | 6.12% | 72.5% | 68.2% | 75.7% | 74.8% | 73.1% | 84.7% | 68.1% | 44% | 7.02% | 3.9% | 4.3% | 95.9% | 89.4% | 103% | 105% | 96.1% | 98% | 100% | 62.1% | 17.5% | 5.92% | 5.77%
7 | CC(C)(S)[C@@H](N)C(=O)O | 75.7% | 94.7% | 96% | 109% | 72.8% | 108% | 90.5% | 110% | 97.3% | 104% | 20% | 75% | 94.5% | 100% | 100% | 64.8% | 110% | 110% | 107% | 113% | 107% | 13.3% | 91.1% | 99.8% | 105% | 99.4% | 84.9% | 103% | 104% | 107% | 122% | 116% | 16.1%
8 | COC(=O)Nc1nc2cc(C(=O)c3ccc(F)cc3)ccc2[nH]1 | 103% | 95.4% | 102% | 91.1% | 98.6% | 97.9% | 51.3% | 40.1% | 33.2% | 26.2% | 47.8% | 95.5% | 105% | 110% | 100% | 92.8% | 95.4% | 77.6% | 40.4% | 32.7% | 28.2% | 52% | 83.6% | 98.8% | 103% | 117% | 115% | 109% | 79.3% | 52% | 45.8% | 37.7% | 52.1%
